# Measurements reported in patent US8846739B2, “TGR5 agonists” (Exelixis Patent Company LLC, priority 2009, dated 2014).
# What was measured:
# human TGR5 (h-TGR5) = biological target: T1, human TGR5 (h-TGR5) (Homo sapiens, UniProt Q8TDU6); assay: TGR5/CRE-Luciferase Assay; type: cell-based; conditions: HEK 293 hTGR5/CRE-Luc cells, 6 hours incubation, read-out: CRE-Luc Agonist (EC50)
# T1 sequence (Q8TDU6 1-330): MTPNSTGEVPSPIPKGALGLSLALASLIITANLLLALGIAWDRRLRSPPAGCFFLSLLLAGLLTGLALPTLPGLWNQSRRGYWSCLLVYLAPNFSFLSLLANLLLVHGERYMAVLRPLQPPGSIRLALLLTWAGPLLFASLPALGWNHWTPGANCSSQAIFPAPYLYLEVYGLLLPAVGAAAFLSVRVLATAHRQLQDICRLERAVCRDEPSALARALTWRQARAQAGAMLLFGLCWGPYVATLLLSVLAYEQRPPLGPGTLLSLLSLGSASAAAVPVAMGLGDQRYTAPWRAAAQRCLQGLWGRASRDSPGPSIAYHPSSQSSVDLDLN
# In short: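 HEK 293 CRE-Luciferase cells stably expressing the receptor, plated in DMEM 18-20 h before assay, then exposed to serially diluted compounds (DMEM with 5% DMSO) for 6 h. Luciferase read-out after lysis; EC50 from dose-response.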
# h-TGR5 = biological target: T2, h-TGR5 (Homo sapiens, UniProt Q8TDU6); assay: TGR5 cAMP Assay using Cisbio cAMP Dynamic 2 htrf assay kit; type: cell-based; conditions: hTGR5CRE-luc HEK 293 cells
# T2 sequence (Q8TDU6 1-330): T1 sequence (Q8TDU6 1-330)
SMILES,EC50 (human TGR5 (h-TGR5)),EC50 (h-TGR5)
"COc1cc(C(C)(C)c2cnc(SCc3c(F)cc(S(=O)(=O)N(CCC[N+](C)(C)C)CCC(=O)O)cc3F)n2-c2ccc(F)cc2)ccc1Cl [Compound 14r, 3-[(2-carboxyethyl){[4-({[5-{1-[4-chloro-3-(methyloxy)phenyl]-1-methylethyl}-1-(4-fluorophenyl)-1H-imidazol-2-yl]thio}methyl)-3,5-difluorophenyl]sulfonyl}amino]-N,N,N-trimethylpropan-1-aminium]",< 100 nM,< 100 nM
"COc1cc(C(C)(C)c2cnc(SCc3c(F)cc(CCC[N+]45CCN(CC4)CC5)cc3F)n2-c2ccc(F)cc2)ccc1Cl [Compound 19, 1-(3-(4-((5-(2-(4-chloro-3-methoxyphenyl)propan-2-yl)-1-(4-fluorophenyl)-1H-imidazol-2-ylthio)methyl)-3,5-difluorophenyl)propyl)-4-aza-1-azoniabicyclo[2.2.2.2]octane 2,2,2-trifluoroacetate]",< 100 nM,< 100 nM
"COc1cc(C(C)(C)c2cnc(SCc3c(F)cc(CCC[N+](C)(C)C)cc3Cl)n2-c2ccc(F)cc2)ccc1Cl [Compound 19d, 3-(3-chloro-4-((5-(2-(4-chloro-3-methoxyphenyl)propan-2-yl)-1-(4-fluorophenyl)-1H-imidazol-2-ylthio)methyl)-5-fluorophenyl)-N,N,N-trimethylpropan-1-aminium 2,2,2-trifluoroacetate]",< 100 nM,< 100 nM
"COc1cc(C(C)(C)c2cnc(SCc3c(F)cc(S(=O)(=O)N4CCC[C@H](C[N+](C)(C)C)C4)cc3Cl)n2-c2ccc(F)cc2)ccc1F [Compound 11w, [(3R)-1-{[3-chloro-5-fluoro-4-({[5-{1-[4-fluoro-3-(methyloxy)phenyl]-1-methylethyl}-1-(4-fluorophenyl)-1H-imidazol-2-yl]thio}methyl)phenyl]sulfonyl}piperidin-3-yl]-N,N,N-trimethylmethanaminium]",< 100 nM,< 100 nM
"COc1cc(C(C)(C)c2cnc(SCc3c(F)cc(S(=O)(=O)N[C@@H](CCCC[N+](C)(C)C)C(=O)O)cc3Cl)n2-c2ccc(F)cc2)ccc1Cl [Compound 17e, (S)-5-carboxy-5-(3-chloro-4-((5-(2-(4-chloro-3-methoxyphenyl)propan-2-yl)-1-(4-fluorophenyl)-1H-imidazol-2-ylthio)methyl)-5-fluorophenylsulfonamido)-N,N,N-trimethylpentan-1-aminium 2,2,2-trifluoroacetate]",< 100 nM,< 100 nM
"COc1cc(C(C)(C)c2cnc(SCc3c(F)cc(S(=O)(=O)N(C)[C@H](CCCC[N+](C)(C)C)C(=O)O)cc3F)n2-c2ccc(F)cc2)ccc1Cl [Compound 17k, (R)-5-carboxy-5-(4-((5-(2-(4-chloro-3-methoxyphenyl)propan-2-yl)-1-(4-fluoro-phenyl)-1H-imidazol-2-ylthio)methyl)-3,5-difluoro-N-methylphenylsulfonamido)-N,N,N-trimethylpentan-1-aminium 2,2,2-trifluoroacetate]",< 100 nM,< 100 nM
"CN([C@@H](CCCC[N+](C)(C)C)C(=O)O)S(=O)(=O)c1cc(F)c(CSc2ncc(C(C)(C)c3ccc(Cl)c(Cl)c3)n2-c2ccc(F)cc2)c(Cl)c1 [Compound 17h, (S)-5-carboxy-5-(3-chloro-4-((5-(2-(3,4-dichlorophenyl)propan-2-yl)-1-(4-fluorophenyl)-1H-imidazol-2-ylthio)methyl)-5-fluoro-N-methylphenylsulfonamido)-N,N,N-trimethylpentan-1-aminium 2,2,2-trifluoroacetate]",< 100 nM,< 100 nM
"CC[N+](CC)(CC)CC#Cc1cc(F)c(CSc2ncc(C(C)(C)c3ccc(Cl)c(OC)c3)n2-c2ccc(F)cc2)c(F)c1 [Compound 18a, 3-(4-((-5-(2-(4-chloro-3-methoxyphenyl)propan-2-yl)-1-(4-fluorophenyl)-1H-imidazol-2-ylthio)methyl)-3,5-difluorophenyl)-N,N,N-triethylprop-2-yn-1-aminium chloride]",< 100 nM,< 100 nM
"COc1cc(-n2c(C(C)(C)c3ccc(Cl)c(Cl)c3)cnc2SCc2c(F)cc(C(=O)NCC[N+]34CCN(CC3)CC4)cc2Cl)ccc1F [Example 2b, 1-{2-[({3-chloro-4-[({5-[1-(3,4-dichlorophenyl)-1-methylethyl]-1-[4-fluoro-3-(methyloxy)phenyl]-1H-imidazol-2-yl}thio)methyl]-5-fluorophenyl}carbonyl)amino]ethyl}-4-aza-1-azoniabicyclo[2.2.2]octane]",< 100 nM,< 100 nM
"CC[N+](CC)(CC)CCOc1cc(F)c(CSc2ncc(C(C)(C)c3ccc(Cl)c(OC)c3)n2-c2ccc(F)cc2)c(F)c1 [Compound 20a, 2-(4-((5(2-(4-chloro-3-methoxyphenyl)propan-2-yl)-(4-fluorophenyl)-1H-imidazol-2-ylthio)methyl)-3,5-difluorophenoxy)-N,N,N-triethylethanaminium chloride]",< 100 nM,< 100 nM

# Continued, values first:
EC50 (human TGR5 (h-TGR5)),EC50 (h-TGR5),SMILES
< 100 nM,< 100 nM,"COc1cc(C(C)(C)c2cnc(SCc3c(F)cc(C(=O)N[C@H]4CC[N+](C)(Cc5ccc(F)cc5)C4)cc3Cl)n2-c2ccc(F)cc2)ccc1Cl (stereo partly drawn) [Example 2e, (3S)-3-({[3-chloro-4-({[5-{1-[4-chloro-3-(methyloxy)phenyl]-1-methylethyl}-1-(4-fluorophenyl)-1H-imidazol-2-yl]thio}methyl)-5-fluorophenyl]carbonyl}amino)-1-[(4-fluorophenyl)methyl]-1-methylpyrrolidinium]"
< 100 nM,< 100 nM,"COc1cc(C(C)(C)c2cnc(SCc3c(F)cc(C(=O)NC4CC[N+](C)(CC(=O)O)CC4)cc3Cl)n2-c2ccc(F)cc2)ccc1Cl (stereo not drawn) [Example 3, 1-(Carboxymethyl)-4-(3-chloro-4-((5-(2-(4-chloro-3-methoxyphenyl)propan-2-yl)-1-(4-fluorophenyl)-1H-imidazol-2-ylthio)methyl)-5-fluorobenzamido)-1-methyl-piperidinium 2,2,2-trifluoroacetate]"
< 100 nM,< 100 nM,"COc1cc(C(C)(C)c2cnc(SCc3c(F)cc(C(=O)N[C@H]4CCC[N+](C)(C)C4)cc3Cl)n2-c2ccc(F)cc2)ccc1Cl [Example 2d, (3S)-3-({[3-chloro-4-({[5-{1-[4-chloro-3-(methyloxy)phenyl]-1-methylethyl}-1-(4-fluorophenyl)-1H-imidazol-2-yl]thio}methyl)-5-fluorophenyl]carbonyl}amino)-1,1-dimethylpiperidinium]"
100 to 1000 nM,100 to 1000 nM,"COC(=O)c1cc(-n2c(C(C)(C)c3ccc(Cl)c(OC)c3)cnc2SCc2c(F)cc(S(=O)(=O)NCCC[N+](C)(C)C)cc2F)ccc1F [Example 6g, 3-{[(4-{[(5-{1-[4-chloro-3-(methyloxy)phenyl]-1-methylethyl}-1-{4-fluoro-3-[(methyloxy)carbonyl]phenyl}-1H-imidazol-2-yl)thio]methyl}-3,5-difluorophenyl)sulfonyl]amino}-N,N,N-trimethylpropan-1-aminium]"
< 100 nM,< 100 nM,"COc1cc(C(C)(C)c2cnc(SCc3c(F)cc(S(=O)(=O)NCCCC[N+](C)(C)C)cc3F)n2-c2ccc(F)cc2)ccc1Cl [Example 6r, 4-({[4-({[5-{1-[4-chloro-3-(methyloxy)phenyl]-1-methylethyl}-1-(4-fluorophenyl)-1H-imidazol-2-yl]thio}methyl)-3,5-difluorophenyl]sulfonyl}amino)-N,N,N-trimethylbutan-1-aminium]"
